Results on 50 molecules are retold here after patent publication US8916579B2, “5-fluoropyrimidinone derivatives” (Dow AgroSciences, LLC., priority 2009, dated 2014).

Each structure is given as a SMILES string. Read-outs that look alike come from different tables or passages of the source.

Data set [1] has as its system Mycosphaerella graminicola; anamorph: Septoria tritici; Bayer code SEPTTR. The data set is described as follows: Fungicidal activity: leaf blotch of wheat, greenhouse wheat plants (variety Yuma), percent disease control. It is filed as in vivo. The note with it: Zymoseptoria tritici. The method, then: Evaluation of Fungicidal Activity: Leaf Blotch of Wheat (Mycosphaerella graminicola; anamorph: Septoria tritici; Bayer code SEPTTR)
Wheat plants (variety Yuma) were grown from seed in a greenhouse in 50% mineral soil/50% soil-less Metro mix until the first leaf was fully emerged, with 7-10 seedlings per pot. These plants were inoculated with an aqueous spore suspension of Septoria tritici either prior to or after fungicide treatments. After inoculation the plants were kept in 100% relative humidity (one day in a dark dew chamber followed by two to three days in a lighted dew chamber) to permit spores to germinate and infect the leaf. The plants were then transferred to a greenhouse for disease to develop.
The effectiveness of the test compounds in controlling disease was determined by assessing the severity of disease on treated plants, then converting the severity to percent control based on the level of disease on untreated, inoculated plants. • In each case of Table II the rating scale is as follows: […]

Where [2] appears, read: 24 h, read-out: SEPTTR 100 PPM 1DP (% Disease Control rating).
Setting [3] is: 72 h, read-out: SEPTTR 100 PPM 3DC (% Disease Control rating).
The mark [4] stands for this setting: 24 h, One-Day Protectant (1DP), 100 ppm, wheat plants, read-out: SEPTTR 100 PPM 1DP (% Disease Control rating).
[5] abbreviates: 72 h, Three-Day Curative (3DC), 100 ppm, wheat plants, read-out: SEPTTR 100 PPM 3DC (% Disease Control rating).

With `O=c1nc(NCN2CCOCC2)c(F)cn1CN1CCOCC1` [Compound 1, 5-fluoro-1-morpholin-4-ylmethyl-4-[(morpholin-4-ylmethyl)amino]-1H-pyrimidin-2-one], the pest or weed control at 100 ppm in data set [1] (setting [2]) and in data set [1] (setting [3]) was 76 to 100% throughout.

Take `CN1CCN(CNc2nc(=O)n(CN3CCN(C)CC3)cc2F)CC1` [Compound 2, 5-fluoro-1-(4-methylpiperazin-1-ylmethyl)-4-[(4-methylpiperazin-1-ylmethyl)-amino]-1H-pyrimidin-2-one]: the pest or weed control at 100 ppm in data set [1] (setting [2]) and in data set [1] (setting [3]) was 76 to 100% throughout.

Take `CN(C)CNc1nc(=O)n(CN(C)C)cc1F` [Compound 3]: the melting point was 157 to 187 °C (dec.). In addition, in data set [1] (setting [4]), the pest or weed control at 100 ppm fell in the range of 76 to 100%. Besides, in data set [1] (setting [5]), the pest or weed control at 100 ppm was in the range of 76 to 100%.

In the case of `CN(C)/C=N/c1nc(=O)n(Cc2ccc(F)cc2)cc1F` [Compound 4, N′-[5-fluoro-1-(4-fluorobenzyl)-2-oxo-1,2-dihydro-pyrimidin-4-yl]-N,N-dimethylformamidine], the pest or weed control at 100 ppm in data set [1] (setting [4]) is 26 to 50%; in data set [1] (setting [5]) it was 0 to 25%.

As to `CN(C)/C=N/c1nc(=O)n(Cc2ccc(Cl)cc2Cl)cc1F` [Compound 5], the pest or weed control at 100 ppm in data set [1] (setting [4]) and in data set [1] (setting [5]) was 0 to 25% throughout.

The molecule `CN(C)/C=N/c1nc(=O)n(Cc2ccccc2)cc1F` [Compound 6] came in with a melting point of 186 to 188 °C. Moreover, the pest or weed control at 100 ppm in data set [1] (setting [4]) lay within 0 to 25%. For the same molecule, the pest or weed control at 100 ppm in data set [1] (setting [5]) lay within 0 to 25%.

`Cc1ccc(Cn2cc(F)c(/N=C/N(C)C)nc2=O)cc1` [Compound 7]: the melting point fell in the range of 178 to 179 °C. In addition, in data set [1] (setting [4]), the pest or weed control at 100 ppm is 0 to 25%. For the same molecule, the pest or weed control at 100 ppm in data set [1] (setting [5]) was in the range of 0 to 25%.

Consider `Cc1ccc(C(=O)Nc2nc(=O)n(C)cc2F)cc1` [Compound 8, N-(5-fluoro-1-methyl-2-oxo-1,2-dihydro-pyrimidin-4-yl)-4-methyl-benzamide], for which the values for the pest or weed control at 100 ppm in data set [1] (setting [4]) and in data set [1] (setting [5]) were 26 to 50% and 0 to 25%, respectively.

For the molecule `CN(c1nc(=O)n(C)cc1F)S(=O)(=O)Cc1ccccc1` [Compound 9, N-(5-fluoro-1-methyl-2-oxo-1,2-dihydropyrimidin-4-yl)-N-methyl-C-phenylmethanesulfonamide], the results for the pest or weed control at 100 ppm in data set [1] (setting [4]) and in data set [1] (setting [5]) were 26 to 50% and 0 to 25%, respectively.

In turn, `CC(C)COC(=O)Nc1nc(=O)n(C)cc1F` [Compound 10, (5-fluoro-1-methyl-2-oxo-1,2-dihydropyrimidin-4-yl)carbamic acid isobutyl ester] registered a melting point of 126 to 128 °C. In data set [1] (setting [2]), the pest or weed control at 100 ppm was 26 to 50%. Further, the pest or weed control at 100 ppm in data set [1] (setting [3]) lay in the range of 51 to 75%.

On to `CC(C)COC(=O)N(C)c1nc(=O)n(C)cc1F` [Compound 11, (5-fluoro-1-methyl-2-oxo-1,2-dihydropyrimidin-4-yl)methylcarbamic acid isobutyl ester], for which the pest or weed control at 100 ppm in data set [1] (setting [2]) is 26 to 50%; in data set [1] (setting [3]), 0 to 25%.

As to `CN(C)/C=N/c1nc(=O)n(COC(=O)C(C)(C)C)cc1F` [Compound 12, 2,2-dimethylpropionic acid 4-(dimethylamino-methyleneamino)-5-fluoro-2-oxo-2H-pyrimidin-1-ylmethyl ester], the pest or weed control at 100 ppm in data set [1] (setting [4]) and in data set [1] (setting [5]) was 76 to 100% each time.

In the case of `CCCC(=O)OCn1cc(F)c(/N=C/N(C)C)nc1=O` [Compound 13], the melting point is 109 to 111 °C. In data set [1] (setting [4]), the pest or weed control at 100 ppm lay within 76 to 100%. Besides, the pest or weed control at 100 ppm in data set [1] (setting [5]) fell in the range of 76 to 100%.

As for `O=c1nc(NCOCc2ccccc2)c(F)cn1COCc1ccccc1` [Compound 15, 1-(benzyloxymethyl)-4-(benzyloxymethylamino)-5-fluoropyrimidin-2(1H)-one], the pest or weed control at 100 ppm in data set [1] (setting [4]) and in data set [1] (setting [5]) was 0 to 25% each time.

Take `Cc1ccc(Cn2cc(F)c(N)nc2=O)cc1` [Compound 25, 4-amino-5-fluoro-1-(4-methylbenzyl)-pyrimidin-2(1H)-one]: the pest or weed control at 100 ppm in data set [1] (setting [4]) and in data set [1] (setting [5]) was 0 to 25% throughout.

For the molecule `CCOCn1cc(F)c(NCc2ccccc2F)nc1=O` [Compound 37, 1-(ethoxymethyl)-5-fluoro-4-(2-fluorobenzylamino)-pyrimidin-2(1H)-one], the pest or weed control at 100 ppm in data set [1] (setting [4]) and in data set [1] (setting [5]) was 0 to 25% throughout.

Take `Cc1ccc(Cn2cc(F)c(N(C)Cc3ccccc3F)nc2=O)cc1` [Compound 38, 5-fluoro-4-((2-fluorobenzyl)(methyl)amino)-1-(4-methylbenzyl)pyrimidin-2(1H)-one]: the pest or weed control at 100 ppm in data set [1] (setting [4]) and in data set [1] (setting [5]) was 0 to 25% throughout.

In turn, `Nc1nc(=O)n(-c2ccccc2)cc1F` [Compound 42] registered a melting point of 233 to 235 °C.

Turning to `COc1ccc(-n2cc(F)c(N)nc2=O)cc1` [Compound 44], the melting point lay in the range of 230 to 232 °C.

The molecule `Nc1nc(=O)n(-c2ccc(Cl)cc2)cc1F` [Compound 45] had a melting point of 255 to 257 °C.

On to `Nc1nc(=O)n(/C=C/c2ccccc2)cc1F` [Compound 48], for which the melting point is 256 to 258 °C.

The molecule `Nc1nc(=O)n(/C=C/Cc2ccccc2)cc1F` [Compound 49] displayed a melting point of 212 to 214 °C.

`CS(=O)(=O)c1ccc(-n2cc(F)c(N)nc2=O)cc1` [Compound 50]: the melting point was in the range of 244.4 to 245.7 °C.

In turn, `Nc1nc(=O)n(C2=CCCCC2)cc1F` [Compound 51] displayed a melting point of 190.6 to 192.7 °C.

The molecule `C=C(c1ccccc1)n1cc(F)c(N)nc1=O` [Compound 52] returned a melting point of 211.2 to 213 °C.

On to `CCC/C=C/n1cc(F)c(N)nc1=O` [Compound 53], for which the melting point was in the range of 152.8 to 153.4 °C.

Regarding `COc1ccc(/C=C/n2cc(F)c(N)nc2=O)cc1` [Compound 54], the melting point is 263.3 to 265.1 °C.

In the case of `Nc1nc(=O)n(-c2ccc3ccccc3c2)cc1F` [Compound 55], the melting point was 272.8 to 274.2 °C.

Molecule `CN(C)/C=N/c1nc(=O)n(C2=CCCCC2)cc1F` [Compound 60] displayed a melting point of 173.2 to 174.4 °C.

With `C=C(c1ccccc1)n1cc(F)c(/N=C/N(C)C)nc1=O` [Compound 61], the melting point fell in the range of 147 to 147.9 °C.

The molecule `CCC/C=C/n1cc(F)c(/N=C/N(C)C)nc1=O` [Compound 62] returned a melting point of 144.7 to 146.3 °C.

Regarding `COc1ccc(/C=C/n2cc(F)c(/N=C/N(C)C)nc2=O)cc1` [Compound 63], the melting point lay in the range of 264.3 to 265.3 °C.

As to `CN(C)/C=N/c1nc(=O)n(-c2ccc3ccccc3c2)cc1F` [Compound 64], the melting point fell in the range of 222.4 to 224.4 °C.

`CS(=O)(=O)c1ccc(-n2cc(F)c(NCc3ccccc3F)nc2=O)cc1` [Compound 68] gave a melting point of 231.6 to 233.1 °C.

With `O=c1nc(NCc2ccccc2F)c(F)cn1C1=CCCCC1` [Compound 69], the melting point lay in the range of 151.5 to 152.6 °C.

As for `C=C(c1ccccc1)n1cc(F)c(NCc2ccccc2F)nc1=O` [Compound 70], the melting point was in the range of 138.9 to 140.2 °C.

As to `COc1ccc(/C=C/n2cc(F)c(NCc3ccccc3F)nc2=O)cc1` [Compound 72], the melting point fell in the range of 196.8 to 198.5 °C.

`O=c1nc(NCc2ccccc2F)c(F)cn1-c1ccc2ccccc2c1` [Compound 73]: the melting point was 207.5 to 209 °C.

With `Nc1nc(=O)n(CC2CC2)cc1F` [Compound 74, 4-amino-1-(cyclopropylmethyl)-5-fluoropyrimidin-2(1H)-one], the pest or weed control at 100 ppm in data set [1] (setting [4]) was in the range of 76 to 100%; in data set [1] (setting [5]), 51 to 75%.

As to `Nc1nc(=O)n(Cc2cccnc2)cc1F` [Compound 75], the pest or weed control at 100 ppm in data set [1] (setting [4]) lay within 26 to 50%; in data set [1] (setting [5]) it was 76 to 100%.

Molecule `CCOCCn1cc(F)c(N)nc1=O` [Compound 78] had a melting point of 207.3 to 208.2 °C.

`CSCn1cc(F)c(N)nc1=O` [Compound 79] returned a melting point of 128.5 to 130.6 °C.

On to `CCOC(=O)Nc1nc(=O)n(Cc2cccnc2)cc1F` [Compound 83], for which the pest or weed control at 100 ppm in data set [1] (setting [4]) and in data set [1] (setting [5]) was 26 to 50% in each case.

`CCOC(=O)Nc1nc(=O)n(CSC)cc1F` [Compound 84] came in with a melting point of 137.1 to 138.8 °C.

In the case of `CC(=O)Nc1nc(=O)n(CC2CCCO2)cc1F` (stereo not drawn) [Compound 95], the pest or weed control at 100 ppm was 0 to 25% in data set [1] (setting [4]) and 51 to 75% in data set [1] (setting [5]).

Regarding `CCOCCn1cc(F)c(NC(=O)c2cccs2)nc1=O` [Compound 100], the melting point lay in the range of 109 to 110.4 °C.

`CCOCCn1cc(F)c(NC(=O)c2ccccc2F)nc1=O` [Compound 101] had a melting point of 116.8 to 117.8 °C.

As to `CC(C)Cn1cc(F)c(NCc2ccccc2F)nc1=O` [Compound 105, 5-fluoro-4-(2-fluorobenzylamino)-1-isobutyl-pyrimidin-2(1H)-one], the pest or weed control at 100 ppm lay in the range of 0 to 25% in data set [1] (setting [2]) and 26 to 50% in data set [1] (setting [3]).

For `CCNc1nc(=O)n(CC(C)C)cc1F` [Compound 107], the pest or weed control at 100 ppm in data set [1] (setting [4]) was in the range of 0 to 25%; in data set [1] (setting [5]) it was 26 to 50%.

On to `CCNc1nc(=O)n(CCOCC)cc1F` [Compound 108], for which the melting point was 63 to 65 °C.
